Molecular target: T1, r5LO-wt (Homo sapiens, UniProt P09917)
T1 sequence (P09917 1-674): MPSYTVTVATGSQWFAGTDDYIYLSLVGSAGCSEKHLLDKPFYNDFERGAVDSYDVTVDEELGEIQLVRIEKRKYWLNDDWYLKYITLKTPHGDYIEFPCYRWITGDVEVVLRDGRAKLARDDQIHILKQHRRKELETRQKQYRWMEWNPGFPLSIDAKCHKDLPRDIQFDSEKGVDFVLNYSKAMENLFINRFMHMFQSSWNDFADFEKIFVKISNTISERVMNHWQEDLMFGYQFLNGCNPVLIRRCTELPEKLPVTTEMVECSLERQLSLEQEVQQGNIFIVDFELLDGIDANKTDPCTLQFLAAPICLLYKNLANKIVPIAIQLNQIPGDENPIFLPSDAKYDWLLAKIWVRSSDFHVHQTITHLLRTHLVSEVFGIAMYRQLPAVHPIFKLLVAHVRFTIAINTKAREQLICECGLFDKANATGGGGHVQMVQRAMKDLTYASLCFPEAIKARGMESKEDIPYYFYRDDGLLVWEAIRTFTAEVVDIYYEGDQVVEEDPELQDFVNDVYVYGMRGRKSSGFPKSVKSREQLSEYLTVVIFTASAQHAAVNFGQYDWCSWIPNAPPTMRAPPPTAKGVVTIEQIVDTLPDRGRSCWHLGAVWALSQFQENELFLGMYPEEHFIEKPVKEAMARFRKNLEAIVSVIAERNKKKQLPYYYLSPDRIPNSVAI
Assay: Recombinant 5-LO activity assay (5-HETE)
Assay type: biochemical
Settings: 3 µg r5LO-wt, 15 min on ice, 1 mM CaCl2 + 20 µM AA; n.i. = no inhibition observed
Protocol: 5-LO activity in intact cells was assayed by measuring LTB4 (leukotriene B4) and 5-HETE (5-hydroxyeicosatetraenoic acid) levels in the PMNL supernatants. Since PMNL preparations (purity >95%) contain eosinophils expressing 15-LO-1 as well as platelets, we also analyzed the effects of NFA on the concomitant formation of […] and 12-(S)-HETE. […] Recombinant 5-LO enzyme activity was assessed by the determination of 5-HETE levels representing a direct product assay. In the cell-based LO activity assays, 5 × 10^6 cells per ml PBS/glucose were transferred to 5 ml glass tubes containing 1 mM CaCl2 and stored on ice. […] Subsequently, the cells were stimulated with calcium ionophore A23187 (2.5 µM) and arachidonic acid (AA, 20 µM) for an additional 10 min at 37°C. Recombinant 5-LO activity assays were carried out using 3 µg r5LO-wt enzyme. The enzyme was diluted in PBS/EDTA/ATP, transferred into 5-ml glass tubes, and stored on ice. […] The samples were then pre-heated at 37°C in a water bath and subsequently stimulated with 1 mM CaCl2 and 20 µM AA for 10 min at 37°C. The reaction was stopped by placing the glass tubes on ice. The supernatants were transferred to 1.5 ml reaction tubes and stored at −80°C before LC-MS (liquid chromatography and mass spectrometry) analysis of LTB4 and HETEs as described in 2.6 at the Institute of Pharmacology, Goethe University, University Hospital, Germany.
The lipid mediators LTB4, hydroxyeicosatetraenoic acids, 5(S)-HETE, 12(S)-HETE, 15(S)-HETE and 20-HETE were analyzed using liquid chromatography tandem-mass spectroscopy (LC-MS/MS). The LC-MS/MS system consisted of a 5500 QTrap mass spectrometer (Sciex, Darmstadt, Germany), operating in negative ESI mode, an Agilent 1200 HPLC system (Agilent, Waldbronn, Germany) and an HTC Pal autosampler (Chromtech, Idstein, Germany).
Suppl. Figure 3: Inhibition of 5-LO derived 5-HETE production by NFA with (A) different carbon chain lengths and (B) different Michael acceptor positions using the r5LO-wt assay. r5LO-wt (3 µg) in PBS/EDTA/ATP buffer was preincubated with the compounds or the vehicle control DMSO (0.1%) for 15 min at 4°C, preheated at 37°C for 30 sec, and subsequently stimulated with 1 mM CaCl 2 and 20 µM AA for another 10 min at 37°C.
5-HETE activity was analyzed by LC-MS. Data are presented as the percent of the control mean ± SD, n = 3–6. AA , arachidonic acid; ATP, adenosine triphosphate; DMSO, dimethyl sulfoxide; EDTA, ethylenediaminetetraacetate; HETE, hydroxyeicosatetraenoic acid; NFA, nitro-fatty acids; PBS, phosphate-buffered saline . […]

IC50 | Structure (SMILES) | r5LO-wt 5-HETE IC50
75500 ± 8100 nM | CCC=C(CCCCCCCC(=O)O)[N+](=O)[O-] [12.9.9, 9-nitro-dodec-9-enoic acid] | –
17900 ± 1600 nM | CCCCC=C(CCCCCCCC(=O)O)[N+](=O)[O-] [14.9.9, 9-nitro-tetradec-9-enoic acid] | –
3300 ± 1200 nM | CCCCCCC=C(CCCCCCCC(=O)O)[N+](=O)[O-] [16.9.9, 9-nitro-hexadec-9-enoic acid] | –
400 ± 1200 nM | CCCCCCCCCCCCCC=C(CCC(=O)O)[N+](=O)[O-] [18.4.4, 4-nitro-octadec-4-enoic acid] | –
400 ± 1100 nM | CCCCCCCCCCCCC=C(CCCC(=O)O)[N+](=O)[O-] [18.5.5, 5-nitro-octadec-5-enoic acid] | –
1000 ± 1200 nM | CCCCCCCCCCCC=C(CCCCC(=O)O)[N+](=O)[O-] [18.6.6, 6-nitro-octadec-6-enoic acid] | –
1100 ± 1200 nM | CCCCCCCCCCCC(=CCCCCC(=O)O)[N+](=O)[O-] [18.6.7, 7-nitro-octadec-6-enoic acid] | –
600 ± 1300 nM | CCCCCCCCCCC=C(CCCCCC(=O)O)[N+](=O)[O-] [18.7.7, 7-nitro-octadec-7-enoic acid] | –
2200 ± 1200 nM | CCCCCCCCCC=C(CCCCCCC(=O)O)[N+](=O)[O-] [18.8.8, 8-nitro-octadec-8-enoic acid] | –
1900 ± 1200 nM | CCCCCCCCCC(=CCCCCCCC(=O)O)[N+](=O)[O-] [18.8.9, 9-nitro-octadec-8-enoic acid] | –
1600 ± 1300 nM | CCCCCCCCC(=CCCCCCCCC(=O)O)[N+](=O)[O-] [18.9.10, 10-nitro-octadec-9-enoic acid] | –
1600 ± 1300 nM | CCCCCCCC=C(CCCCCCCCC(=O)O)[N+](=O)[O-] [18.10.10, 10-nitro-octadec-10-enoic acid] | –
800 ± 1200 nM | CCCCCCC=C(CCCCCCCCCC(=O)O)[N+](=O)[O-] [18.11.11, 11-nitro-octadec-11-enoic acid] | –
900 ± 1300 nM | CCCCCCCCCCC=C(CCCCCCCC(=O)O)[N+](=O)[O-] [20.9.9, 9-nitro-eicos-9-enoic acid] | –
– | CCCCCCCC/C=C\CCCCCCCC(=O)O [OA, oleic acid, reference compound] | n.i.

Structure (SMILES) | IC50 | r5LO-wt 5-HETE IC50
CCCCCCCCC=C(CCCCCCCC(=O)O)[N+](=O)[O-] [18.9.9, 9-nitro-octadec-9-enoic acid] | 1100 ± 1200 nM | –

Same assay, conditions: at concentrations of >10 µM

Structure (SMILES) | effect on product formation by recombinant 5-LO
CCCCCCCC/C=C\CCCCCCCC(=O)O [OA, oleic acid, reference compound] | slight inhibitory effect
